According to patent US20080200405A1, “Drug Resistance Reversal In Neoplastic Disease” (priority 2007, published 2008):
Counter-ions that a name gives are not always drawn.

Experiments:
[1] = system: TNFα; assay: Measurement of LPS Induced-TNFα in THP-1 Cells; assay type: cell-based, human; conditions: Homo sapiens, THP-1; for IC50: read-out: TNFalpha IC50; for inhibition at 10 µM: compound 10 uM, 5 ng/mL LPS, read-out: Mean Percent Inhibition of TNF-alpha using 5 ng/mL LPS
Experimental: The lipid peroxidation assay method of Ohkawa, H.; Ohishi, N.; Yaki, K. Anal. Biochem. 1979, 95, 351 was used to evaluate […]. […] […] Cells were collected and spun at 1500 g for 10 minutes. Supernatant was collected and analyzed for TNFα.
Mean Percent Inhibition of TNF-alpha by compounds of the present invention is set forth in Table B. TNF-alpha inhibition data is set forth in Table B-1. OT-551 was used in both native form and in the form of nanoparticles. […] Other nitrogenous heterocyclic species of the invention are expected to show similar improvement in efficacy when disposed in nanoparticulate form.

[2] = system: Doxorubicin resistant SaOS2 cells; assay: Cancer cell viability (MTT) in the presence or absence of doxorubicin; assay type: cell-based, human; conditions: compound 50 ug/mL, 3 days
[3] = system: Lipid peroxidation; assay: Lipid peroxidation inhibition (method of Ohkawa); assay type: biochemical
[4] = system: bFGF-induced angiogenesis in the CAM model; assay: bFGF (FGF2)-stimulated CAM model; assay type: in vivo, chicken; conditions: bFGF/FGF2 1 ug, 30 ug injected; for inhibition in vivo at 0.03 mg: Gallus gallus, read-out: % Inhibition ± SEM
Experimental: In vivo neovascularization was examined by the method previously described by Auerbach et al. (J. Dev. Biol. 41:391-394 (1974)). Ten-day old chicken embryos were purchased from Spafas, Inc. (Preston, Conn.) and were incubated at 37° C. with 55% relative humidity. In the dark, with the aid of a candling lamp, a small hole was punctured in the shell concealing the air sac with a hypodermic needle. A second hole was punctured in the shell on the broadside of the egg directly over an […] portion of the embryonic membrane, as observed during candling. An artificial air sac was created beneath the second hole by applying gentle vacuum to the first hole using a small rubber squeeze bulb. The vacuum caused the chorioallantoic membrane (CAM) to separate from the shell.
For inducing angiogenesis, sterile filter disks were saturated with bFGF (1 μg/ml) (Life Technologies, Gaithersburg, Md.) or other pro-angiogenesis factors and control disks were saturated with PBS without Calcium and Magnesium. Control disks were saturated with PBS without Calcium and Magnesium.
After 24-48 hr, 10-25 ul of test agent was injected intravenously or added topically into the CAM membrane. Eight-Ten eggs/treatment group were used.
The number of vessel branch points contained in a circular region equal to the area of a filter disk was counted for each section. Percent inhibition data are expressed as the quotient of the experimental value minus the negative control value divided by the difference between the positive control value and the negative control value. One image was counted in each CAM preparation, and findings from eight CAM preparations were analyzed for each treatment condition. In addition, each experiment was performed three times. The resulting angiogenesis index is the mean ±SEM (Standard Error of Measurement) of new branch points in each set of treatment. Statistical analysis of blood vessel branching patterns are performed by 1-way analysis of variance (ANOVA) comparing experimental with corresponding control groups. Statistical significance differences are assessed at P value of <0.05.
The CAM model protocol was modified to include stimulus with bFGF. The effect of injected OT 551 was assayed.
TP-H was applied to the CAM model study to determine its respective anti-angiogenesis effects according to the materials and methods provided in Example 1. Basic Fibroblast Growth Factor (bFGF) was used to induce angiogenesis in the CAM model.
Compounds were introduced via injection to the CAM model study to determine its respective anti-angiogenesis effects according to the materials and methods provided in Example 1. bFGF was used to induce angiogenesis in the CAM model.

| SMILES | IC50 [1] [µM] | melting point | Mean OD (×10^−3), MTT viability ([2]; Dox. 10^−6 M (+)) | Mean OD (×10^−3), MTT viability ([2]; absence of Dox. (−)) | % Lipid Peroxidation inhibition (at 1 uM) [3] [%] | also measured |
| --- | --- | --- | --- | --- | --- | --- |
| CC1(C)CC(Oc2nsnc2-c2ccccc2)CC(C)(C)N1O.Cl [Compound 44, 1-hydroxy-4-(4-phenyl-1,2,5-thiadiazol-3-yloxy)-2,2,6,6-tetramethylpiperidine hydrochloride] | ≥ 100 | 220.8 °C (dec.) | 13.25 ×10^−3 | 23.00 ×10^−3 |  |  |
| CCOCC(C)(C)N(O)C(C)(C)COCC [Compound 40, N-Hydroxyl-N,N-bis(1-ethoxy-2-methylpropan-2-yl)amine hydrochloride] | ≥ 100 |  | 338.75 ×10^−3 | 1177.25 ×10^−3 | 46.8 |  |
| CC1(C)CC(O)(c2ccc(F)cc2)CC(C)(C)N1O.Cl [Compound 57, 4-(4-Fluorophenyl)-1-hydroxyl-2,2,6,6-tetramethylpiperidin-4-ol hydrochloride] | ≥ 100 | 220 °C (dec.) | 426.25 ×10^−3 | 1078.50 ×10^−3 |  |  |
| CC(C)(C)/[N+]([O-])=C/c1ccccc1 [Compound 17, α-phenyl-t-butyl nitrone, reference compound] |  |  |  |  |  | Lipid Peroxidation Inhibition, % Inhibition ([3]; 10 uM): 0.4% |
| CC(C)c1nsnc1OCC1=CC(C)(C)N(O)C1(C)C.Cl [Compound 51] |  | 155.7 °C | 71.00 ×10^−3 | 1208.25 ×10^−3 |  |  |
| CCCCC1(O)CC(C)(C)N(O)C(C)(C)C1.Cl [Compound 41, 1,4-dihydroxy-4-n-butyl-2,2,6,6-tetramethylpiperidine hydrochloride] | 0.9 | 187 °C (dec.) | 261.25 ×10^−3 | 824.75 ×10^−3 |  |  |
| CC1(C)CC(CO)C(C)(C)N1O.Cl (stereo not shown) [Compound 33] |  |  | 300.00 ×10^−3 | 1237.50 ×10^−3 | 54.9 |  |
| CC1(C)C=C(CO)CC(C)(C)N1O.Cl [Compound 25] |  |  | 325.00 ×10^−3 | 1137.50 ×10^−3 | 42.0 |  |
| CC(C)(C)c1cc(NC(=O)C2CC(C)(C)N(O)C(C)(C)C2)cc(C(C)(C)C)c1O.Cl [Compound 29, N-(3,5-di-tert-butyl-4-hydroxyphenyl)-1-hydroxy-2,2,6,6-tetramethylpiperidine-4-carboxamide hydrogen chloride] | 45.5 |  | 105.75 ×10^−3 | 1328.00 ×10^−3 | 92.3 |  |
| CC1(C)CC(Oc2nsnc2C#N)CC(C)(C)N1O [Compound 45, hydrochloride] | 30 |  | 276.50 ×10^−3 | 1063.33 ×10^−3 | 91.5 |  |
| O=C(O)c1cc(C(=O)O)c2c(n1)C(=O)C(=O)c1cc(C(=O)O)[nH]c1-2 [PQQ, pyrroloquinoline quinone, reference compound] |  |  |  |  |  | Lipid Peroxidation Inhibition, % Inhibition ([3]; 100 uM): 93.7% |
| CC1(C)CC(O)C(Br)C(C)(C)N1O (stereo not shown) [Compound 9, 3-Bromo-2,2,6,6-tetramethyl-piperidine-1,4-diol] | 18.9 | 138.5 °C (dec.) | 234.75 ×10^−3 | 509.00 ×10^−3 |  | inhibition in vivo at 0.03 mg [4]: 82.2 ± 6.7%; Branch pts ± SEM [4]: 58.4 ± 6.52; inhibition at 10 µM [1]: 48 ± 14% |
| CC1(C)CC(C(N)=O)C(C)(C)N1O (stereo not shown) [Compound 24, 1-hydroxy-2,2,5,5-tetramethylpyrrolidine-3-carboxamide] | ≥ 100 |  | 362.00 ×10^−3 | 1166.50 ×10^−3 | 37.0 |  |
| CC1(C)CC(NS(C)(=O)=O)CC(C)(C)N1O (as salt: salt) [Compound 10, 1-hydroxy-4-methanesulfonamido-2,2,6,6-tetramethylpiperidine] |  | 178.3 °C (dec.) |  |  |  |  |
| COc1ccc(C2=C(c3cc(OC)c(OC)c(OC)c3)C(C)(C)N(O)C2(C)C)cc1C=O.Cl [Compound 46, 5-(2,5,-dihydro-4-(3,4,5-trimethoxyphenyl)-1-hydroxy-2,2,5,5-tetramethyl-1H-pyrrol-3-yl)-2-methoxybenzaldehyde hydrochloride] | 1 |  | 32.75 ×10^−3 | 79.00 ×10^−3 | 80.1 |  |
| COc1cc(CNC2CC(C)(C)N(O)C(C)(C)C2)cc(OC)c1OC.Cl.Cl [Compound 58, N-(3,4,5-trimethoxybenzyl)-1-hydroxy-2,2,6,6-tetramethylpiperidin-4-amine dihydrochloride] |  | 181 °C | 291.50 ×10^−3 | 1207.00 ×10^−3 |  |  |
| CC1(C)C=C(CO)C(C)(C)N1O [Compound 8, 2,5-dihydro-2,2,5,5-tetramethyl-1-hydroxyl-1H-pyrrol-3-yl)methanol hydrogen chloride] | 20.3 |  | 197.25 ×10^−3 | 392.50 ×10^−3 |  | inhibition in vivo at 0.03 mg [4]: 88.1 ± 7.6%; Branch pts ± SEM [4]: 57.8 ± 8.02; inhibition at 10 µM [1]: 55 ± 6% |
| COc1ccc2nc(NC3CC(C)(C)N(O)C(C)(C)C3)sc2c1.Cl |  | 220 °C (dec.) |  |  |  |  |
| CC1(C)CC(NC(=O)CCCCC2CCSS2)CC(C)(C)N1O.Cl (stereo not shown) [Compound 49, 5-(1,2-dithialan-3-yl)-N-(1-hydroxy-2,2,6,6-tetramethylpiperidin-4-yl)pentanamide hydrochloride] |  | 164.7 °C (dec.) | 195.00 ×10^−3 | 1330.25 ×10^−3 |  |  |
| CC1(C)c2ccc(Br)cc2C(C)(C)N1O.Cl |  | 214.1 °C |  |  |  |  |
| CC1(C)CC(Oc2nsnc2N2CCSCC2)CC(C)(C)N1O.Cl [Compound 55, 4-(4-(1-hydroxy-2,2,6,6-tetramethylpiperidin-4-yloxy)-1,2,5-thiadiazol-3-yl)thiomorpholine hydrochloride] |  | 218 °C (dec.) | 285.75 ×10^−3 | 1037.25 ×10^−3 |  |  |
| CC1(C)COC(=O)C(C)(C)N1O.Cl [Compound 39, N-Hydroxyl-3,3,5,5-tetramethylmorpholin-2-one hydrochloride] | ≥ 100 | 145 °C (dec.) | 311.00 ×10^−3 | 1201.00 ×10^−3 |  |  |
| CC1(C)CC(Oc2nsnc2C(=O)O)CC(C)(C)N1O.Cl |  | 209.1 °C (dec.) |  |  |  |  |
